Measured values reported in patent publication US10851115B2, “Heterocyclic compounds as RSV inhibitors” (Enanta Pharmaceuticals, Inc., priority 2017, dated 2020).

System: Human RSV-A (“Long” strain)
Experiment: RSV in vitro cytoprotection assay in HEp-2 cells (ATPlite readout)
Assay type: cell-based
Conditions: human respiratory syncytial virus, 96 h; HEp-2 cells, 4-day incubation, ATPlite; read-out: Human RSV-A (“Long” strain) EC50
Description: RSV is a single stranded negative sense RNA virus that causes respiratory tract infections which can be dangerous to infants, the elderly, and immunosuppressed individuals. Currently there is no vaccine, and therapeutic options are both costly and of limited effectiveness. These approved treatments are Ribavirin, and Palivizumab/Synagis (a monoclonal antibody). RSV has two genotypes, A and B, which differ primarily in the structure of the virus' surface “G” attachment protein. Our current primary screen focusses on RSV-A and uses an in vitro cytoprotection assay where compounds are added in 2-fold dilutions to cells which are then subjected to fully replicative viral particles. Cell viability is measured several days later along with separate measurements of compound cytotoxicity. This report focuses on the results of our most recent screening of compounds.
HEp-2 cells, (originally derived from tumors grown in irradiated-cortisonised weanling rats that had been injected with epidermoid carcinoma tissue from a person's larynx, but later found to be indistinguishable from HeLa cells by PCR DNA analysis), were used for the culturing of genotype A, “Long” strain RSV. Flasks were inoculated with RSV and viral stocks were collected once cytopathic effect (CPE) was greater than 90%. Viral stocks in 25% sucrose media were snap frozen using liquid nitrogen to increase viral stability. Viral stock titers were quantified by tissue culture infectious dose 50% (TCID50) using 8,000 cells per well and 3-fold viral dilutions across a 96-well plate, cultured for 4 days.
Following extensive parameter testing, the final assay is run as follows: HEp-2 cells are seeded into the inner 60 wells of a 96-well plate at 8,000 cells per well in a volume of 50 μL using Growth Media (DMEM without phenol red, 1% L-Glut, 1% Penn/Strep, 1% nonessential amino acids, 10% FBS). 2-Fold serial dilutions of control and test compounds are added to the wells in duplicate in a total volume of 25 μL. Viral stock is then added to the wells in a volume of 25 μL, bringing the total volume of each well to 100 μL. Each 96-well plate has a control column of 6 wells with cells and virus but no compound (negative control, max CPE), a column with cells but no compound or virus (positive control, minimum CPE), and a column with no cells or virus or compound (background plate/reagent control). The control wells with cells but no virus are given an additional 25 uL of growth media containing an equal quantity of sucrose as those wells receiving the viral stock in order to keep consistent in media and volume conditions. The outer wells of the plate are filled with 125 μL of growth media to act as a thermal and evaporative moat around the test wells. Following a 4-day incubation period, the plates are read using ATPlite (50 uL added per well), which quantifies the amount of ATP (a measure of cell health) present in each well. Assay plates are read using the Envision luminometer. In parallel, cytotoxicity is examined on an additional 96-well plate treated in an identical manner, but substituting the 25 μL of viral stock for 25 μL of growth media. […] EC50 ranges are as follows: A<0.01 μM; B 0.01-0.05 μM; C>0.05 μM.

SMILES: O=C(Nc1c(F)cccc1F)c1cc2c(s1)-c1ccncc1N(C(=O)c1ccc(NC(=O)c3cccnc3N3CC4(CCOCC4)C3)cc1)CC2 [Example 1]
- EC50: > 50 nM

SMILES: O=C(Nc1c(F)cccc1Cl)c1cc2c(s1)-c1ccncc1N(C(=O)c1ccc(NC(=O)c3cccnc3N3CC4(CCOCC4)C3)cc1)CC2 [Example 2]
- EC50: 10 to 50 nM

SMILES: O=C(Nc1ccc(C(=O)N2CCc3cc(-c4nc5ccccc5[nH]4)sc3-c3ccncc32)cc1)c1cccnc1N1CC2(CCOCC2)C1 [Example 3]
- EC50: > 50 nM

SMILES: O=C(Nc1c(F)cccc1F)c1cc2c(s1)-c1ncccc1N(C(=O)c1ccc(NC(=O)c3cccnc3N3CC4(CCOCC4)C3)cc1)CC2 [Example 4]
- EC50: < 10 nM

SMILES: O=C(Nc1c(F)cccc1Cl)c1cc2c(s1)-c1ncccc1N(C(=O)c1ccc(NC(=O)c3cccnc3N3CC4(CCOCC4)C3)cc1)CC2 [Example 5]
- EC50: < 10 nM

SMILES: O=C(Nc1ccc(C(=O)N2CCc3cc(-c4nc5ccccc5[nH]4)sc3-c3ncccc32)cc1)c1cccnc1N1CC2(CCOCC2)C1 [Example 6]
- EC50: > 50 nM

SMILES: Cc1cnc(N2CC3(CCOCC3)C2)c(C(=O)Nc2ccc(C(=O)N3CCc4cc(C(=O)Nc5c(C)cccc5C)sc4-c4ncccc43)cc2)c1 [Example 7]
- EC50: < 10 nM

SMILES: Cc1cnc(N2CC3(CCOCC3)C2)c(C(=O)Nc2ccc(C(=O)N3CCc4cc(C(=O)Nc5c(C)cccc5C#N)sc4-c4ncccc43)cc2)c1 [Example 8]
- EC50: < 10 nM

SMILES: Cc1cnc(N2CC3(CCOCC3)C2)c(C(=O)Nc2ccc(C(=O)N3CCc4cc(C(=O)Nc5c(F)cccc5F)sc4-c4ncccc43)cc2)c1 [Example 9]
- EC50: < 10 nM

SMILES: Cc1cnc(N2CC3(CCOCC3)C2)c(C(=O)Nc2ccc(C(=O)N3CCc4cc(C(=O)Nc5c(F)cc(F)cc5F)sc4-c4ncccc43)cc2)c1 [Example 10]
- EC50: < 10 nM

SMILES: Cc1cnc(N2CC3(CCOCC3)C2)c(C(=O)Nc2ccc(C(=O)N3CCc4cc(C(=O)Nc5c(C)cccc5F)sc4-c4ncccc43)cc2)c1 [Example 11]
- EC50: < 10 nM

SMILES: Cc1cnc(N2CC3(CCOCC3)C2)c(C(=O)Nc2ccc(C(=O)N3CCc4cc(C(=O)Nc5c(Cl)cccc5Cl)sc4-c4ncccc43)cc2)c1 [Example 12]
- EC50: < 10 nM

SMILES: Cc1cnc(N2CC3(CCOCC3)C2)c(C(=O)Nc2ccc(C(=O)N3CCc4cc(C(=O)Nc5ncccn5)sc4-c4ncccc43)cc2)c1 [Example 14]
- EC50: 10 to 50 nM

SMILES: Cc1cnc(N2CC3(CCOCC3)C2)c(C(=O)Nc2ccc(C(=O)N3CCc4cc(C(=O)Nc5ncccc5F)sc4-c4ncccc43)cc2)c1 [Example 15]
- EC50: < 10 nM

SMILES: Cc1cnc(N2CC3(CCOCC3)C2)c(C(=O)Nc2ccc(C(=O)N3CCc4cc(C(=O)Nc5ncc(C)s5)sc4-c4ncccc43)cc2)c1 [Example 16]
- EC50: < 10 nM

SMILES: Cc1cnc(N2CC3(CCOCC3)C2)c(C(=O)Nc2ccc(C(=O)N3CCc4cc(C(=O)N[C@@H]5CCOC5)sc4-c4ncccc43)cc2)c1 [Example 17]
- EC50: 10 to 50 nM

SMILES: Cc1cnc(N2CC3(CCOCC3)C2)c(C(=O)Nc2ccc(C(=O)N3CCc4cc(C(=O)N[C@H]5CCOC5)sc4-c4ncccc43)cc2)c1 [Example 18]
- EC50: 10 to 50 nM

SMILES: Cc1cnc(N2CC3(CCOCC3)C2)c(C(=O)Nc2ccc(C(=O)N3CCc4cc(C(=O)Nc5ccccn5)sc4-c4ncccc43)cc2)c1 [Example 19]
- EC50: < 10 nM

SMILES: Cc1cnc(N2CC3(CCOCC3)C2)c(C(=O)Nc2ccc(C(=O)N3CCc4cc(C(=O)Nc5cccnc5)sc4-c4ncccc43)cc2)c1 [Example 20]
- EC50: < 10 nM

SMILES: Cc1cnc(N2CC3(CCOCC3)C2)c(C(=O)Nc2ccc(C(=O)N3CCc4cc(C(=O)Nc5ccncc5)sc4-c4ncccc43)cc2)c1 [Example 21]
- EC50: < 10 nM

SMILES: Cc1cnc(N2CC3(CCOCC3)C2)c(C(=O)Nc2ccc(C(=O)N3CCc4cc(C(=O)Nc5ncccc5C)sc4-c4ncccc43)cc2)c1 [Example 22]
- EC50: < 10 nM

SMILES: Cc1cnc(N2CC3(CCOCC3)C2)c(C(=O)Nc2ccc(C(=O)N3CCc4cc(C(=O)Nc5cccc(C)n5)sc4-c4ncccc43)cc2)c1 [Example 23]
- EC50: < 10 nM

SMILES: Cc1cnc(N2CC3(CCOCC3)C2)c(C(=O)Nc2ccc(C(=O)N3CCc4cc(C(=O)NCc5ccco5)sc4-c4ncccc43)cc2)c1 [Example 24]
- EC50: < 10 nM

SMILES: COCC1(NC(=O)c2cc3c(s2)-c2ncccc2N(C(=O)c2ccc(NC(=O)c4cc(C)cnc4N4CC5(CCOCC5)C4)cc2)CC3)CCC1 [Example 25]
- EC50: < 10 nM

SMILES: Cc1cnc(N2CC3(CCOCC3)C2)c(C(=O)Nc2ccc(C(=O)N3CCc4cc(C(=O)NCc5ccccn5)sc4-c4ncccc43)cc2)c1 [Example 26]
- EC50: < 10 nM

SMILES: Cc1cnc(N2CC3(CCOCC3)C2)c(C(=O)Nc2ccc(C(=O)N3CCc4cc(C(=O)NC5CCOCC5)sc4-c4ncccc43)cc2)c1 [Example 27]
- EC50: < 10 nM

SMILES: Cc1cnc(N2CC3(CCOCC3)C2)c(C(=O)Nc2ccc(C(=O)N3CCc4cc(C(=O)NC[C@H]5CCCO5)sc4-c4ncccc43)cc2)c1 [Example 28]
- EC50: < 10 nM

SMILES: Cc1cnc(N2CC3(CCOCC3)C2)c(C(=O)Nc2ccc(C(=O)N3CCc4cc(C(=O)NCC5CCCO5)sc4-c4ncccc43)cc2)c1 (stereo not drawn) [Example 29]
- EC50: < 10 nM

SMILES: Cc1cnc(N2CC3(CCOCC3)C2)c(C(=O)Nc2ccc(C(=O)N3CCc4cc(C(=O)Nc5ncco5)sc4-c4ncccc43)cc2)c1 [Example 30]
- EC50: 10 to 50 nM

SMILES: Cc1cnc(N2CC3(CCOCC3)C2)c(C(=O)Nc2ccc(C(=O)N3CCc4cc(C(=O)Nc5cccnn5)sc4-c4ncccc43)cc2)c1 [Example 31]
- EC50: < 10 nM

SMILES: Cc1cnc(N2CC3(CCOCC3)C2)c(C(=O)Nc2ccc(C(=O)N3CCc4cc(C(=O)Nc5cccnc5C)sc4-c4ncccc43)cc2)c1 [Example 32]
- EC50: < 10 nM

SMILES: Cc1cnc(N2CC3(CCOCC3)C2)c(C(=O)Nc2ccc(C(=O)N3CCc4cc(C(=O)Nc5cnccc5C)sc4-c4ncccc43)cc2)c1 [Example 33]
- EC50: < 10 nM

SMILES: Cc1cnc(N2CC3(CCOCC3)C2)c(C(=O)Nc2ccc(C(=O)N3CCc4cc(C(=O)Nc5ccncc5C)sc4-c4ncccc43)cc2)c1 [Example 34]
- EC50: < 10 nM

SMILES: Cc1cnc(N2CC3(CCOCC3)C2)c(C(=O)Nc2ccc(C(=O)N3CCc4cc(C(=O)Nc5nccs5)sc4-c4ncccc43)cc2)c1 [Example 35]
- EC50: < 10 nM

SMILES: Cc1cnc(N2CC3(CCOCC3)C2)c(C(=O)Nc2ccc(C(=O)N3CCc4cc(C(=O)NCc5cccnc5)sc4-c4ncccc43)cc2)c1 [Example 36]
- EC50: 10 to 50 nM

SMILES: Cc1cnc(N2CC3(CCOCC3)C2)c(C(=O)Nc2ccc(C(=O)N3CCc4cc(C(=O)Nc5c(Cl)cncc5Cl)sc4-c4ncccc43)cc2)c1 [Example 37]
- EC50: < 10 nM

SMILES: Cc1cnc(N2CC3(CCOCC3)C2)c(C(=O)Nc2ccc(C(=O)N3CCc4cc(-c5nc6ccccc6[nH]5)sc4-c4ncccc43)cc2)c1 [Example 38]
- EC50: 10 to 50 nM

SMILES: Cc1ccc(C(=O)Nc2ccc(C(=O)N3CCc4cc(C(=O)Nc5c(F)cccc5F)sc4-c4ncccc43)cc2)c(N2CC3(CCOCC3)C2)n1 [Example 39]
- EC50: < 10 nM

SMILES: Cc1ccc(C(=O)Nc2ccc(C(=O)N3CCc4cc(C(=O)Nc5c(F)cc(F)cc5F)sc4-c4ncccc43)cc2)c(N2CC3(CCOCC3)C2)n1 [Example 40]
- EC50: < 10 nM

SMILES: Cc1ccc(C(=O)Nc2ccc(C(=O)N3CCc4cc(C(=O)Nc5c(C)cccc5F)sc4-c4ncccc43)cc2)c(N2CC3(CCOCC3)C2)n1 [Example 41]
- EC50: < 10 nM

SMILES: Cc1ccc(C(=O)Nc2ccc(C(=O)N3CCc4cc(-c5nc6ccccc6[nH]5)sc4-c4ncccc43)cc2)c(N2CC3(CCOCC3)C2)n1 [Example 42]
- EC50: < 10 nM

SMILES: Cc1ccc(C(=O)Nc2ccc(C(=O)N3CCc4cc(-c5nc6cccc(Cl)c6[nH]5)sc4-c4ncccc43)cc2)c(N2CC3(CCOCC3)C2)n1 [Example 43]
- EC50: 10 to 50 nM
